Source: patent US20030171333A1, “Pharmaceutical composition containing at least a polymer combined with or conjugated to at least a phenylalkylcarboxylic acid salt, conjugate polymers and uses thereof” (priority 2000, published 2003)

Tests used:
MCF-7ras cells [1] = experiment: MTT growth assay with isobolic combination index; format: cell-based, human; settings: for NaPA Bc / NaPA Be: used alone
Description: (§1) Cells sampled in the exponential growth phase are seeded in 96-well plates in a proportion of 5 000 cells per 200 μl, this being in a DMEM medium supplemented with 2% of FCS, 1% of glutamine and 1% of sodium pyruvate. After incubation for 24 hours, the various concentrations of products to be tested are added in a proportion of 3 wells per concentration. A negative control is prepared without the addition of product.
(§2) After incubation for 72 hours, the cells are washed twice with a buffered saline solution and then 100 μl of MTT are added to each well. After 4 hours of incubation, 100 μl of DMSO are added to the wells before reading the plate 570 nm using a plate reader.
The percentage inhibition I is determined using the equation previously described. The net increase in untreated cells this time corresponds to the cell density contained in the control wells minus that of D0. As regards the net increase in treated cells, it corresponds to the treated cell density at D72 subtracted with that of D0.
MCF-7 cells transfected with the Ha-ras oncogene (MCF-7ras cells) were cultured in DMEM medium supplemented with 10% of FCS, 2 mM of L-glutamine, 1 mM of sodium pyruvate, 50 units/ml of penicillin and 50 μg/ml of streptomycin, at a temperature of 37° C. and in a humid atmosphere with 5% of CO2.
This was carried out in 96-well microplates under the same conditions as those given above in example 17.
In this example, the effects of the following products, alone or in combination, at various concentrations, were studied on MCF-7ras cell proliferation after incubation for 72 hours:
The percentage inhibition I was calculated as described above in example 17.
The effect of synergy between the dextrans DMCB7 or LS4 DMCB or LS17 and NaPA was calculated using the following isobolic equation (T. Mosmann, J. Immunol. Methods, 1983, 65, 55-63): […]
in which Ac and Bc correspond, respectively, to the concentration of dextran derivative and NaPA used in combination, and Ae and Be correspond to the concentration of each of these two compounds used alone and inducing the same effect; D is the combination index and Dm is the mean combination index. When D or Dm is less than 1, then the combination of the two products has a synergistic effect.
When the concentration of dextran derivative used alone (Ae), making it possible to obtain a percentage inhibition close to that which is obtained when the dextran derivative is used in combination with NaPA, is very high and such that it cannot be determined precisely, then the ratio Ac/Ae tends toward zero and, consequently, D=Bc/Be. Such concentrations of dextran derivatives (Ae) have been indicated in tables II, III and IV below as simply being greater than the concentration given for Ac.
Each experiment was repeated 3 times so as to be able to calculate the statistical significance (P) of the combination index (D or Dm) compared to the additive combination index for the effects (D=1) using the Student's t test.

MCF-7ras cells [2] = experiment: Cell cycle analysis (BrdU/propidium iodide, FACScan); format: cell-based, human; settings: NaPA alone 10 mM, 48 hours
Description: To analyze the cell cycle, the cells were seeded in plates in a proportion of […] and per well in DMEM medium supplemented with 2% of FCS. After culturing for 24 hours, the various tested products were added.
After 72 hours, the MCF-7ras cells were incubated in the presence of BrdU for 4 hours. The cells were then washed with PBS buffer and fixed with 70% ethanol. […] The cells were then centrifuged and resuspended in a staining solution containing […] of propidium iodide (Boehringer Mannheim) for 10 min. The stained cells are then analyzed with a FACScan (Coulter).
Analysis of the distribution of MCF-7ras cells treated with NaPA alone (10 mM), the dextran LS4 DMCB alone (18.5 mM) and a combination thereof (NaPA: 10 mM; LS4 DMCB: 18.5 mM) in the various phases of the cell cycle was carried out after 48 hours of treatment.

MCF-7ras tumors = experiment: Antitumor effect in vivo, tumors induced by inoculation of MCF-7ras cells in athymic mice; settings: NaPA 40 mg/kg, injected twice a week, after 7 weeks of treatment; P=0.049
Description: Fifty 3-week-old female athymic mice from the Laboratoire Harlan (Gannat, France) were kept in a temperature-controlled room and subjected to a cycle of light/dark alternating every 12 hours.
Cells of the MCF-7ras tumor line as described above in example 17 were cultured in a DMEM medium supplemented with 10% of FCS until 80% confluency was reached. After centrifugation, the cells were resuspended in DMEM supplemented with 10% of FCS.
Each mouse was then inoculated subcutaneously with these cells, in the proximity of the mammary gland, in a proportion of 5×10^6 cells per animal.
The volume of the tumors (V) was calculated in the following way:
V=(4/3)π(r1)^2)r2); r1 representing the smallest radius of the tumor and r2 the largest radius of the tumor.
Four weeks after inoculation, solutions of NaPA (40 mg/kg) or of dextran LS4 DMCB (150 mg/kg) or of a combination of NaPA (40 mg/kg) and dextran LS4 DMCB (150 mg/kg), prepared in 0.1 ml of sodium chloride, were injected into the mice, twice a week, for 7 weeks for the solutions of NaPA alone and of dextran LS4 DMCB alone. The injections of the combination of NaPA and dextran LS4 DMCB were stopped after six weeks.
For each solution tested, 10 mice chosen randomly from the 50 mice initially inoculated were subjected to the treatment. […]
The volume of each tumor was measured once a week. […]

MCF-7 cells [3] = experiment: Cell growth assay, cell counting on Coulter Counter ZM; format: cell-based, human
Description: The MCF-7 tumor line is a line of estrogen-sensitive epithelial cells originating from pleural metastases of an infiltrating ductule breast adenocarcinoma. They are cultured in Dulbecco's Modified Eagle Medium (DMEM), supplemented with 10% of fetal calf serum (FCS), 1% of glutamine and 1% of sodium pyruvate. The cells are stored in cryotubes in frozen form in liquid nitrogen. The cryotubes are partially thawed in a water bath at 37° C. 2 ml of complete culture medium are added and the cell suspension is then mixed. Culture flasks (COSTAR® T25) are prepared with culture medium beforehand. The cell suspension is added to the flasks and placed in an incubator at 37° C. with 5% of CO2.
Cells sampled in the exponential growth phase are seeded in 24-well plates in a proportion of 15000 cells per ml and per well, this being in a DMEM medium supplemented with 10% FCS, 1% of sodium pyruvate and 1% of glutamine.
After incubation for 24 hours, the various concentrations of products to be tested are added in the proportion of 4 wells per concentration. These products are diluted in a DMEM medium containing 2% of FCS, 1% of sodium pyruvate and 1% of glutamine, so as to obtain the desired concentrations. The negative control is prepared without the addition of product.
After incubation for 72 hours, the cells are detached and then counted using a Coulter Counter ZM® set on the parameters predefined for MCF-7 cells. The diameter (threshold) of detection is 5 for an attenuation of 32. The latter determines the number of particles of desired diameter contained in the sample. By taking into account the dilution made, the number of cells per ml of initial cell suspension is determined from this value.
%I=[1−(net increase in treated cells/net increase in untreated cells)]×100
The net increase in untreated cells corresponds to the number of cells contained in the control wells (DMEM medium containing 2% FCS) subtracted with the number of cells at D0 (number of cells at the time the products are added to the wells). […]

MCF-7 cells [4] = experiment: MTT growth assay; format: cell-based, human
Description: MTT (3-(4,5-dimethylthiazol-2-yl)-2,5-diphenyl-tetrazolium bromide) has the property that it can be reduced in alkaline medium, thus giving a colored compound, blue formazan. Mitochondria, by virtue of their membrane-bound dehydrogenases, are capable of carrying out this reduction. As a result, the number of functional mitochondria, and indirectly the number of live cells, can be quantified as a function of the intensity of the coloration.
as §1, §2
The percentage inhibition I is determined using the equation previously described. The net increase in untreated cells this time corresponds to the cell density contained in the control wells minus that of D0. […]

[5] = tested on: 1205LU human melanoma cells; experiment: Antitumor effect in vivo, 1205LU human melanoma in athymic mice
Description: A group of 14 female athymic mice were subcutaneously inoculated, according to the protocol described above in example 17, with 1205LU human melanoma cells, in a proportion of 10^6 cells per animal.
For a period of five weeks, and at a rate of twice a week, a first group of 4 mice were given an injection of 100 μl of sodium chloride so as to serve as a control group, a second group of 4 mice were given an injection of LS17-NaPAC at a dose of 60 mg/kg/100 μl, and a third group of 6 mice were given an injection of NaPA at a dose of 6.9 mg/kg/100 μl.
The volume of each tumor was measured before the first injection and then once a week for the five weeks of treatment. It was calculated according to the equation defined above in example 17.
Furthermore, at the end of treatment, the mice were sacrificed so as to be able to determine the mass of each of the tumors. […] The treatment with NaPA alone at a dose of 6.9 mg/kg therefore appears to be nonsignificant, contrary to that with LS17-NaPAC at an equivalent dose of 60 mg/kg (p<0.005).

HUVEC cells = experiment: HUVEC cell proliferation (MTT), antiangiogenic activity in vitro; format: cell-based; settings: tested alone at concentrations equivalent to LS17-NaPAC, 72 hours
Description: Immortalized healthy endothelial cells (HUVEC) were seeded in a proportion of 10000 cells per well and per 100 μl of DMEM medium supplemented with 2% of FCS, in 96-well microplates (COSTAR®). The number of cells was determined after having prepared a standard range.
After culturing for 24 hours, the HUVEC cells were incubated with the various concentrations of the products to be tested prepared in DMEM medium containing 2% of FCS. The absorbance at the time the products were added was measured and compared to the standard range, so as to determine the number of cells.
After culturing for 72 hours, the cell supernatant is removed and 1 wash with PBS buffer containing calcium and magnesium is carried out. 100 μl of a solution of MTT is then added and the cells are incubated for 4 hours. After 4 hours of incubation, the MTT is removed and the crystals which have formed are dissolved with DMSO for 10 minutes with agitation. Absorbance is measured at 570 nm.
The concentration of 10 μg/ml of LS17-NaPAC tested is compared to a concentration of NaPA alone of 1.3216 μg/ml or to a concentration of 8.7 μg/ml of LS17-DMCB alone.

## O=C([O-])Cc1ccccc1.[Na+] [NaPA, sodium phenylacetate]
MCF-7ras cells [1]; NaPA alone at 30 and 40 mM, 72 h
  inhibition of MCF-7ras cell proliferation: 70%
MCF-7ras cells [1]; same effect as DMCB7 0.05 mM + NaPA 5 mM (10% inhibition)
  NaPA Bc: 1 mM
MCF-7ras cells [1]; same effect as DMCB7 0.3 mM + NaPA 5 mM (20% inhibition)
  NaPA Bc: 5 mM
MCF-7ras cells [1]; same effect as DMCB7 1 mM + NaPA 5 mM (38% inhibition)
  NaPA Bc: 10.7 mM
MCF-7ras cells [1]; same effect as DMCB7 1.27 mM + NaPA 5 mM (42% inhibition)
  NaPA Bc: 12 mM
MCF-7ras cells [1]; same effect as DMCB7 1.7 mM + NaPA 5 mM (45% inhibition)
  NaPA Bc: 13 mM
MCF-7ras cells [1]; same effect as DMCB7 2 mM + NaPA 5 mM (50% inhibition)
  NaPA Bc: 20 mM
MCF-7ras cells [1]; same effect as DMCB7 5 mM + NaPA 5 mM (60% inhibition)
  NaPA Bc: 29 mM
MCF-7ras cells [1]; same effect as DMCB7 7 mM + NaPA 5 mM (70% inhibition)
  NaPA Bc: 36 mM
MCF-7ras cells [1]; same effect as LS4 3.7 mM + NaPA 0.75 mM (51.4% inhibition)
  NaPA Bc: 22 mM
MCF-7ras cells [1]; same effect as LS4 7.4 mM + NaPA 1.5 mM (54.8% inhibition)
  NaPA Bc: 23 mM
MCF-7ras cells [1]; same effect as LS4 14.8 mM + NaPA 3 mM (55% inhibition)
  NaPA Bc: 23.3 mM
MCF-7ras cells [1]; same effect as LS4 18.5 mM + NaPA 4 mM (60.2% inhibition)
  NaPA Bc: 29.3 mM
MCF-7ras cells [1]; same effect as LS17 1.53 mM + NaPA 0.5 mM (0% inhibition)
  NaPA Be: 0 mM
MCF-7ras cells [1]; same effect as LS17 3 mM + NaPA 1 mM (16% inhibition)
  NaPA Be: 0.76 mM
MCF-7ras cells [1]; same effect as LS17 6 mM + NaPA 2 mM (17.3% inhibition)
  NaPA Be: 0.83 mM
MCF-7ras cells [1]; same effect as LS17 12 mM + NaPA 4 mM (17.3% inhibition)
  NaPA Be: 0.83 mM
MCF-7ras cells [2]
  distribution of cells in the phases of the cell cycle: blocking of the cells in the G0/G1 phase
MCF-7ras tumors
  inhibition of tumor cell growth: 59%
MCF-7 cells [3]; Homo sapiens, MCF7, 72 h, read-out: IC50 (minimum dose causing arrest of proliferation of 50% of cells)
  IC50: 5 mM
MCF-7 cells [3]; concentrations greater than 30 mM, reflects cytotoxic effect
  inhibition of cell proliferation: exceeds 100%
MCF-7 cells [3]; same inhibition as maximum effect of NaPAC MF6
  concentration of NaPA alone giving this inhibition: 50 mM
MCF-7 cells [4]; concentrations less than 1 mM, MTT
  effect on MCF-7 cells: does not appear to have a significant effect
MCF-7 cells [4]; same inhibition (40 to 50%) as the combination
  concentration of free NaPA giving this same inhibition: 5 mM
[5]; NaPA 6.9 mg/kg, end of treatment
  mass of the tumors vs untreated mice: no significant difference
[5]; NaPA 6.9 mg/kg/100 μl, twice a week, five weeks
  effect on tumor growth (tumor volume): does not appear to have a significant effect
HUVEC cells
  inhibitory effect on HUVEC cell proliferation: do not appear to exhibit an inhibitory effect
